Test [1] concerns syndecan-1 expression in 3T3 cells. As to the kind of experiment: Quantitation of cell surface syndecan in 3T3 cells exposed to growth factors. In kind it is cell-based, mouse. To be noted: FGF-2 administered alone. How it is done:
Growth factors enhance syndecan expression. NMuMG mouse mammary epithelial cells and 3T3 (NIH) mouse fibroblasts were routinely cultured in bicarbonate-buffered Dulbecco's modified Eagle's medium (DMEM; GIBCO) containing 10% FCS (GIBCO) and antibiotics, as previously described (Elenius et al., J. Biol. Chem. 265:17837-17843 (1990)). For experiments, cells were plated at equal density on culture dishes (Nunc) and grown to 60-70% confluency. Twenty-four hours before supplementing the medium with growth factor(s), the medium on the cells was replaced with fresh medium containing 2% CMS-FCS (Vogel et al., Proc. Natl. Acad. Sci. USA 75:2810-2814 (1978)). Equally treated cultures without growth factor addition served as negative controls. […] For quantitation and isolation of cell surface syndecan, media were discarded at time points indicated in the text and the cell layers were washed twice with ice cold phosphate buffered saline (PBS). […] After subsequent washes by resuspension and centrifugation the cell numbers were measured by counting the nuclei with a Coulter Counter (Coulter Electronics).
For quantitation of syndecan intercalated into the cell membrane, syndecan ectodomain was released by incubating washed cells in 20 μg/ml bovine pancreatic trypsin (Type III; Sigma) in PBS for 10 min on ice bath. […]

The subject of the next test is MCA3D cells. As to the kind of experiment: Cell proliferation of MCA3D keratinocytes. In kind it is cell-based. Particulars: MCA3D mouse keratinocytes.
Test [2] has as its system FGF-inducible Response Element (FiRE). The experiment in a line: pFiRE CAT reporter in syndecan-1 transfected 3T3 cells (3T3 1.5). To be noted: 3T3 1.5 cells expressing high levels of syndecan-1, versus wild type 3T3. Format: cell-based, mouse. The source says: The Enhancer is Not Functional in 3T3 Cells Expressing High Levels of Syndecan-1. Syndecan-1 transfected 3T3 cells (3T3 1.5) and wild type 3T3 cells were transiently transfected with the pFiRE construct, treated with FGF or a negative control, and analyzed for reporter gene (CAT) expression. The results are depicted in FIG. 16. The closed columns indicate relative CAT activity in control cells (without FGF treatment) while the labeled columns depict relative CAT activity in FGF-treated cells.

From US6492344B1, “Syndecan enhancer element and syndecan stimulation of cellular differentiation” (Biotie Therapies Corp., priority 1993, dated 2002) come the findings set out here.

As to “FGF-2: Basic fibroblast growth factor (FGF-2 or bFGF); recombinant human”, the syndecan-1 expression result in test [1] is listed as “shows enhancement of syndecan-1 expression”. Further, the cell proliferation entry in the test with MCA3D cells was “stimulated cell proliferation”. The “activation of CAT expression from pFiRE” value in test [2] was “significantly reduced”.
